Among the data in ChEMBL document CHEMBL1125971, “A concise synthesis of 12-(3'-hydroxy-n-propyl)-deoxoartemisinin” (Bioorg Med Chem Lett, 1991) are IC50 values, retold here.

Converted amounts (≈) assume the structure as drawn.

This assay relates to Plasmodium falciparum. In words: In vitro antimalarial activity against Plasmodium falciparum. The class given is functional, organism-based.
As usually defined, the IC50 is the point on the concentration scale where inhibition reaches its midpoint. In turn, `C[C@@H]1CCC2[C@@H](C)CCO[C@@H]3O[C@]4(C)CCC1C23OO4` (some centres undefined) yielded an IC50 of 19 ng/mL (≈ 67.4 nM).
The compound `C[C@@H]1CCC2[C@@H](C)[C@H](CCCO)O[C@@H]3O[C@]4(C)CCC1C23OO4` (some centres undefined) returned a half-inhibitory concentration (IC50) of 0.23 ng/mL (≈ 0.705 nM).
Turning to `C[C@@H]1CCC2[C@@H](C)C(=O)O[C@@H]3O[C@]4(C)CCC1C23OO4` (some centres undefined), the IC50 stood at 1.21 ng/mL (≈ 4.29 nM).
Regarding `C[C@@H]1CCC2[C@@H](C)CO[C@@H]3O[C@]4(C)CCC1C23OO4` (some centres undefined), the 50% inhibitory concentration (IC50) amounted to 0.15 ng/mL (≈ 0.559 nM).
